Results published in patent US9315522B2, “Antibacterial compounds” (JANSSEN SCIENCES IRELAND UC, priority 2012, dated 2016).
≈ marks a conversion by molar mass, not a printed value.

Key:
[1] = tested on: Staphylococcus aureus ATCC 29213; assay: Antibacterial susceptibility testing, IC90 determination (STA); assay type: cell-based; settings: Staphylococcus aureus, ATCC29213, Staphylococcus aureus ATCC 29213, broth microdilution, resazurin; read-out: STA (361.159) IC90
How it was run: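 S. aureus ATCC 29213 tested by broth microdilution in Mueller-Hinton broth, 5×10^5 CFU/ml, two-fold compound dilutions typically 63 to 0.49 μM, 1.25% DMSO, 16-20 h at 35° C. Growth read fluorometrically with resazurin (ex 540/em 590 nm); IC90 in μg/ml is 90% growth-inhibitory concentration.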

[2] = Thermodynamic solubility (pH solubility profiling); assay type: physicochemical; settings: thermodynamic from solid
Protocol: The pH solubility profiling was carried out at ambient temperature for a period of 4 days. A saturation solubility study was carried out in order to determine maximum solubility in a particular buffer solution. The compound was added to respective buffer solution until saturation point is reached. This was followed by shaking the flask for 4 days at ambient temperature. After 4 days, the solutions were filtered and injected on UPLC and the concentration was determined using a generic HPLC method.

[3] = Cytotoxicity MTT assay (HELAM); assay type: cell-based, Human; settings: human, HelaM cells, read-out: HELAM (222.125) CC50
How it was run: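 HelaM cells exposed 72 h at 37° C to serial dilutions, typically 25 to 0.8 μM, in 0.5% DMSO. MTT formazan dissolved in 2-propanol, absorbance at 540 nm minus 690 nm; CC50 is concentration halving viability.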

## O=C1CNCc2cc(/C=C/C(=O)N3CC4C=C(c5nccs5)CC4C3)cnc2N1 (stereo not drawn) [compound 48]
[1]
  IC90: 0.24 µg/mL (≈ 0.000589 mM)
[2]; aqueous buffer, Buffer pH 4, ambient temperature
  solubility thermodynamic at 4 days: 440 µg/mL (≈ 1.08 mM)
[2]; aqueous buffer, Buffer pH 7.4, ambient temperature
  solubility thermodynamic at 4 days: > 1220 µg/mL
[2]; aqueous with cosolvent or surfactant or cyclodextrin, 10% HP-β-CD buffer pH 4, ambient temperature
  solubility thermodynamic at 4 days: > 2470 µg/mL
[2]; aqueous with cosolvent or surfactant or cyclodextrin, 10% HP-β-CD buffer pH 7.4, ambient temperature
  solubility thermodynamic at 4 days: > 1380 µg/mL
[2]; aqueous with cosolvent or surfactant or cyclodextrin, 20% HP-β-CD buffer pH 4, ambient temperature
  solubility thermodynamic at 4 days: > 4720 µg/mL
[2]; aqueous with cosolvent or surfactant or cyclodextrin, 20% HP-β-CD buffer pH 7.4, ambient temperature
  solubility thermodynamic at 4 days: > 2410 µg/mL
[2]; pH 2, simulated gastric fluid, 0.01N HCl, ambient temperature
  solubility thermodynamic at 4 days: > 2560 µg/mL
[3]
  CC50 at 72 h: > 10.2 µg/mL
